Laboratory results: patent US8202893B2, “Cannabinergic lipid ligands” (University of Connecticut, priority 2004, dated 2012)
Like-named read-outs stand apart in the source and are kept apart here.

Experiments:
[1] = target: T1, FAAH (fatty acid amide hydrolase) (Rattus norvegicus, UniProt P97612); assay: FAAH screening: inhibition of anandamide metabolism to arachidonic acid; assay type: biochemical; settings: 25 nmoles compound with 25 nmoles AEA, 75 μg enzyme, 250 μL, 15 min
T1 construct: Anandamide Amidase Activity in Rat Brain Microsomes; from tissue; host or cells: rat brain microsomes (by the cited procedure)
T1 sequence (P97612 1-579): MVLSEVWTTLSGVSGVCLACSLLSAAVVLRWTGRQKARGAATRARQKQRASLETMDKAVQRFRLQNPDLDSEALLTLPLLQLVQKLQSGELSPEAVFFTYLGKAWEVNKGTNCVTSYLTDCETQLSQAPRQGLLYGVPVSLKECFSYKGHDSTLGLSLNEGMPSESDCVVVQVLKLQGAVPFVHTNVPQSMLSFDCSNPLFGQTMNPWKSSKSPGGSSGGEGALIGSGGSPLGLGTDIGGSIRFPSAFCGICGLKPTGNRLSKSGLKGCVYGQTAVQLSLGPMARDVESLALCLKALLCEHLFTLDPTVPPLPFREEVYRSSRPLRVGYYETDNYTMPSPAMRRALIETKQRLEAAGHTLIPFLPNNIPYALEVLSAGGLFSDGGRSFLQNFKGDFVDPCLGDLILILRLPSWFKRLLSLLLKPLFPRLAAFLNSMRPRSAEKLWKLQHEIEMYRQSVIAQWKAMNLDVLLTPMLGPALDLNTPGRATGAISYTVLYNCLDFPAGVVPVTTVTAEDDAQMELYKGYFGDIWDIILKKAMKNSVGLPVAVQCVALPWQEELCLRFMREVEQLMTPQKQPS
Description: The FAAH (fatty acid amide hydrolase) enzyme preparation was obtained according to the procedure of Lang and Makriyannis et al High Performance Liquid Chromatographic Determination of Anandamide Amidase Activity in Rat Brain Microsomes, Analytical Biochemistry (238): 40-45, 1996.
All compound solutions were made to a concentration of 10 mM in DMSO. Three tests were performed on each compound: hydrolysis, to determine the stability of the compound in assay conditions without the enzyme present; metabolism, to determine the stability of the compound with the enzyme present; and inhibition of anandamide (native substrate) metabolism to arachidonic acid.
Again the reaction mixture was treated in the same manner as described above and the concentrations of AEA and AA were calculated using external standards. Percent inhibition was calculated using the following equation: % Inhib.=(AA15-AA0)i/(AA15-AA0)s where (AA15-AA0)c is the amount of arachidonic acid formed over 15 minutes from AEA with the inhibitor present and (AA15-AA0)s is the amount of arachidonic acid formed over 15 minutes from AEA when the inhibitor is not present. […] The reaction mixtures were treated as described above and the amount of AA formed was calculated. The software package GraphPad Prism was utilized to calculate IC50 and Ki. HPLC Conditions:
Chromatographic separation was achieved using an Ultrasphere ODS Pre-column (4.6×45 mm) from Beckman. Hardware consisted of a Waters Millennium HPLC system with a 20 μL injection loop. The mobile phase consisted of 8.5% o-phosphoric acid:acetonitrile (3:7), run isocratically at a rate of 1 mL/min and detection at 204 nm. The total run time was 8 minutes with AEA eluting at 2.2 minutes and AA at 6.0 minutes.

CB1 cannabinoid receptor = target: T2, CB1 cannabinoid receptor (Rattus norvegicus, UniProt P20272); assay: CB1 receptor binding, [3H]CP-55,940 displacement; settings: rat forebrain membranes
T2 construct: membranes were prepared from rat forebrain membranes; from tissue; host or cells: rat forebrain
Description: Some inventive analogs were tested for CB2 receptor binding affinity and for CB1 receptor affinity (to determine selectivity). […] The lower the Ki value, the higher the binding affinity. […] For the CB1 receptor binding studies, membranes were prepared from rat forebrain membranes according to the procedure of P. R. Dodd et al, A Rapid Method for Preparing Synaptosomes: Comparison with Alternative Procedures, Brain Res., 107-118 (1981). The binding of the novel analogues to the CB1 cannabinoid receptor was assessed as described in W. A. Devane et al, Determination and Characterization of a Cannabinoid Receptor in a Rat Brain, Mol. Pharmacol., 34, 605-613 (1988) and A. Charalambous et al, 5′-azido Δ^8-THC: A Novel Photoaffinity Label for the Cannabinoid Receptor, J. Med. Chem., 35, 3076-3079 (1992) with the following changes. The above articles are incorporated by reference herein.
Membranes, previously frozen at −80° C., were thawed on ice. To the stirred suspension was added three volumes of TME (25 mM Tris-HCl buffer, 5 mM MgCl2 and 1 mM EDTA) at a pH 7.4. The suspension was incubated at 4° C. for 30 min. At the end of the incubation, the membranes were pelleted and washed three times with TME.
(§1) The treated membranes were subsequently used in the binding assay described below. Approximately 30 μg of membranes were incubated in silanized 96-well microtiter plate with TME containing 0.1% essentially fatty acid-free bovine serum albumin (BSA), 0.8 nM [^3H] CP-55,940, and various concentrations of test materials in a final volume of 200 μL. The assays were incubated for 1 hour at 30° C. and then immediately filtered using Packard Filtermate 196 harvester and Whatman GF/C filterplates and washed with wash buffer (TME) containing 0.5% BSA. Radioactivity was detected using MicroScint 20 scintillation cocktail added directly to the dried filterplates, and the filterplates were counted using a Packard Instruments Top-Count. Nonspecific binding was assessed using 100 nM CP-55,940. Data collected from three independent experiments performed with duplicate determinations was normalized between 100% and 0% specific binding for [^3H] CP-55,940, determined using buffer and 100 nM CP-55,940. The normalized data was analyzed using a 4-parameter nonlinear logistic equation to yield IC50 values.

CB2 receptor = target: T3, CB2 receptor (Mus musculus, UniProt P47936); assay: CB2 receptor binding, [3H]CP-55,940 displacement; settings: mouse spleen membranes
T3 construct: membranes were prepared from frozen mouse spleen; from tissue; host or cells: mouse spleen
Description: as §1
For the CB2 receptor binding studies, membranes were prepared from frozen mouse spleen essentially according to the procedure of P. R. Dodd et al, A Rapid Method for Preparing Synaptosomes: Comparison with Alternative Procedures, Brain Res., 226, 107-118 (1981) which is incorporated by reference herein. Silanized centrifuge tubes were used throughout to minimize receptor loss due to adsorption. The CB2 binding assay was conducted in the same manner as for the CB1 binding assay. The binding affinities (Ki) were also expressed in nanomoles (nM).

anandamide transporter = assay: [3H]Anandamide transporter competition assay; assay type: cell-based; settings: human CCF-STG1 astrocytoma cells, 10 nM [3H]anandamide
Description: Human CCF-STG1 astrocytoma cells (American Type Culture collection) were grown in RPMI1640 culture medium containing 2 mM L-glutamine, 4.5 g/L glucose, 10 mM HEPES, and 1.0 mM sodium pyruvate, 10% FBS, cultures at 37° C. with 5% CO2. For standard competition assays, confluent cells grown in 24-well plates were rinsed and preincubated for 10 min at 37° C. in assay buffer (Hank's Balanced Salt Solution containing 0.1% DMSO, 10 mM HEPES) plus test compounds (at their final concentrations of 0.01-100 μM). After having discarded the preincubation media, the cells were incubated for 4 min in 0.2 ml assay buffer containing 10 nM [^3H] anandamide (137.6 Ci/mmol, New England Nuclear) plus test compounds. Reactions were stopped by removing the incubation media and rinsing the cells three times with 0.5 ml of ice-cold HBSS buffer containing 0.1% fatty acid-free Bovine Serum Albumin (sigma). Radioactive material in Triton X-100 cell extracts was measured by liquid scintillation counting. A minimum of three independent experiments conducted in six replicates was used to define the concentration needed to produce half-maximal inhibition (IC50) for each compound. IC50 values were obtained by nonlinear regression fitting of the data, using the PRIZM software package. Data are expressed as mean±SEM.

[2] = with PMSF (second value of cell), read-out: Ki CB1 (nM) (o/w PMSFQ)
[3] = without PMSF (first value of cell), read-out: Ki CB1 (nM) (o/w PMSFQ)
[4] = with PMSF (second value of cell), read-out: Ki CB1 (nM) (o/w PMSF)
[5] = without PMSF (first value of cell), read-out: Ki CB1 (nM) (o/w PMSF)

T3 sequence (P47936 whole entry): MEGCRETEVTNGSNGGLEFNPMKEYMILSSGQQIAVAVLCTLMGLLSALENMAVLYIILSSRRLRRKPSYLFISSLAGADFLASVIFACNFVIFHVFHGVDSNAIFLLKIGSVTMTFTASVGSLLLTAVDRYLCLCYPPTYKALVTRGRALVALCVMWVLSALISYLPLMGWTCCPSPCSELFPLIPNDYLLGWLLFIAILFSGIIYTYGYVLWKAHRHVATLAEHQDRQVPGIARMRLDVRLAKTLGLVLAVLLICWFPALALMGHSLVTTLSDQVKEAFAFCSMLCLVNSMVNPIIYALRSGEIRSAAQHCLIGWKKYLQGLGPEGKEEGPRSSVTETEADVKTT
T2 sequence (P20272 whole entry): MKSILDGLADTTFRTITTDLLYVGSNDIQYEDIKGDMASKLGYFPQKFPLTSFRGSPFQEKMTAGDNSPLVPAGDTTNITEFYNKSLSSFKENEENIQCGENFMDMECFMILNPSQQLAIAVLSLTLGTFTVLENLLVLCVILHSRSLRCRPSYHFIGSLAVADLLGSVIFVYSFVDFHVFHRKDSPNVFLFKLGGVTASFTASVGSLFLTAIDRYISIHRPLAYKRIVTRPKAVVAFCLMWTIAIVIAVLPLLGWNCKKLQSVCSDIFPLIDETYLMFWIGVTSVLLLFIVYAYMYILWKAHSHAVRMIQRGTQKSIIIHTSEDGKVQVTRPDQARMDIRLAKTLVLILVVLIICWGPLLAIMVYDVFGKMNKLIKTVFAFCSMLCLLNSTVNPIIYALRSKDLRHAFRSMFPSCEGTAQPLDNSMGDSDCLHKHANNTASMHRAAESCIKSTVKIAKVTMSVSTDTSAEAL

Structure (SMILES) | FAAH % Inhibition [1] | Ki (CB1 cannabinoid receptor; [2]) | Ki (CB1 cannabinoid receptor; [3]) | Ki (CB2 receptor) | IC50 (anandamide transporter; read-out: IC50 AT inhibition) | Ki (CB1 cannabinoid receptor; [4]) | Ki (CB1 cannabinoid receptor; [5]) | IC50 (anandamide transporter; read-out: IC50 (AT inhib.))
[N-]=[N+]=NCCCCC/C=C\C/C=C\C/C=C\C/C=C\CCCC(=O)NC1CC1 [Compound A5] | 7% | 0.9 nM | 26.7 nM | 57.6 nM | 2900 nM |  |  | 
[N-]=[N+]=NCCCC/C=C\C/C=C\C/C=C\C/C=C\CCCC(=O)NC1=NCCS1 [Compound A8] | 49% | 106 nM | 1300 nM | 513 nM | 2300 nM |  |  | 
[N-]=[N+]=NCCCC/C=C\C/C=C\C/C=C\C/C=C\CCCC(=O)NC1CCC1 [Compound A9] | 58% | 31.9 nM | 112 nM | 72.4 nM |  |  |  | 
CC(C)NC(=O)CCC/C=C\C/C=C\C/C=C\C/C=C\CCCCN=C=S [Compound A10] | 84% | 7.7 nM | 95.2 nM | 52.7 nM |  |  |  | 
O=C(CCC/C=C\C/C=C\C/C=C\C/C=C\CCCCN=C=S)NCC1CC1 [Compound A11] | 90% | 34.2 nM | 91.7 nM | 70.9 nM |  |  |  | 
[N-]=[N+]=NCCCCC/C=C\C/C=C\C/C=C\C/C=C\CCCC(=O)Nc1ccc(O)cc1 [Compound A13] | 33% | 531 nM | 3830 nM | 335 nM | 700 nM |  |  | 
[N-]=[N+]=NCCCCC/C=C\C/C=C\C/C=C\C/C=C\CCCC(=O)NC1=NCCS1 [Compound A14] | 48% | 144 nM | 428 nM | 243 nM | 1200 nM |  |  | 
COc1cc(CNC(=O)CCC/C=C\C/C=C\C/C=C\C/C=C\CCCCCN=[N+]=[N-])ccc1O [Compound A15] | 38% | 13.2 nM | 48.8 nM | 74.7 nM |  |  |  | 
O=C(CCC/C=C\C/C=C\C/C=C\C/C=C\CCCCCO)NC1CC1 [Compound A17] | 61% | 3.9 nM | 209 nM | 38.7 nM | 35300 nM |  |  | 
N#CCCCCC/C=C\C/C=C\C/C=C\C/C=C\CCCC(=O)NC1CC1 [Compound A19] | 57% | 0.04 nM | 32.9 nM | 5.7 nM | 23500 nM |  |  | 
O=C(CCC/C=C\C/C=C\C/C=C\C/C=C\CCCCCCl)NC1CC1 [Compound A20] | 67% | 0.17 nM | 57.9 nM | 28.3 nM | 4100 nM |  |  | 
CCCCCN(C)C/C=C\C/C=C\C/C=C\C/C=C\CCCC(=O)NC1CC1 [Compound A21] |  | 66.3 nM | 76.5 nM | 238 nM |  |  |  | 
CCCCCN(C)C/C=C\C/C=C\C/C=C\C/C=C\CCCCNC(=O)COC [Compound A22] |  |  |  | 224 nM |  |  |  | 
CCCCCN(C)C/C=C\C/C=C\C/C=C\C/C=C\CCCCNC(C)=O [Compound A23] |  | 627 nM | 813 nM | 1760 nM |  |  |  | 
CCCCCN(C)C/C=C\C/C=C\C/C=C\C/C=C\CCCCNC(=O)COC [Compound A24] |  |  |  | 435 nM |  |  |  | 
CCCCCN(C)C/C=C\C/C=C\C/C=C\C/C=C\CCCCNC(C)=O [Compound A25] |  | 1030 nM | 1500 nM | 3650 nM |  |  |  | 
C[C@H](CO)NC(=O)CCC/C=C\C/C=C\C/C=C\C/C=C\C12CC3CC(CC(C3)C1)C2 [Compound A28] |  |  |  | 3460 nM |  |  |  | 
C[C@H](CO)NC(=O)CCC/C=C\C/C=C\C/C=C\C/C=C\CCC12CC3CC(CC(C3)C1)C2 [Compound A29] |  |  |  | 5670 nM |  |  |  | 
CCCCC/C=C\C/C=C\C/C=C\C/C=C\CCCCOC(=O)N[C@H](C)CO [Compound B1] | 14.7% |  |  | 5070 nM |  | 1440 nM | 1330 nM | 7100 nM
CCCCC/C=C\C/C=C\C/C=C\C/C=C\CCCCOC(=O)N[C@@H](C)CO [Compound B2] | 14.3% |  |  | 2150 nM |  | 996 nM | 1100 nM | 6400 nM
CCCCC/C=C\C/C=C\C/C=C\C/C=C\CCCCOC(=O)NC1CC1 [Compound B6] |  |  |  | 983 nM |  | 75.1 nM | 181 nM | 15500 nM
CCCCC/C=C\C/C=C\C/C=C\C/C=C\CCCCOC(=O)NC1CCC1 [Compound B7] |  |  |  | 5310 nM |  | 995 nM | 1410 nM | 15500 nM
CCCCC/C=C\C/C=C\C/C=C\C/C=C\CCCCOC(=O)NC1CCCCC1 [Compound B8] |  |  |  | 781 nM |  | 1470 nM | 3960 nM | 33000 nM
CCCCC/C=C\C/C=C\C/C=C\C/C=C\CCCCNC(=O)OC[C@H](C)O [Compound B16] |  |  |  | 289 nM |  | 686 nM | 1200 nM | 3290 nM
